Patent US5998654A, “Retinoic acid receptor antagonist compounds and methods” (Ligand Pharmaceuticals Incorporated, priority 1997, dated 1999)

Biological target: T1, RARα (Homo sapiens, UniProt P10276)
T1 sequence (P10276 1-462): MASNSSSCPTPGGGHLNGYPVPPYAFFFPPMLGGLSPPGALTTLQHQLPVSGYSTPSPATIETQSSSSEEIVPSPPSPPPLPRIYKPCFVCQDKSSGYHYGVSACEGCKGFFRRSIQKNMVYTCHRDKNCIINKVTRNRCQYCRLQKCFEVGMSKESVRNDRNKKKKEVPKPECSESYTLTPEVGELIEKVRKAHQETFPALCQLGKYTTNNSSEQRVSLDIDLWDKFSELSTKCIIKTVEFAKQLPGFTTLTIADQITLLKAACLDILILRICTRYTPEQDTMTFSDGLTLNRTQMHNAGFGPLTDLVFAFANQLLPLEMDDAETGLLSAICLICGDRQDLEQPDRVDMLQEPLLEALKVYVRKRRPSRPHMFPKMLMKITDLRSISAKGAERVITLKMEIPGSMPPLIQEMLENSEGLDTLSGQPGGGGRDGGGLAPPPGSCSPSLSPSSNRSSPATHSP
Experiment: RAR binding, RARα
Settings: Kd from IC50 by Cheng-Prussof equation
Description: Non-specific binding was defined as that binding remaining in the presence of 500 nM of the appropriate unlabelled compound. At the end of the incubation period, bound from free ligand were separated. The amount of bound tritiated retinoids was determined by liquid scintillation counting of an aliquot (700 μL) of the supernatant fluid or the hydroxylapatite pellet.
After correcting for non-specific binding, IC50 values were determined. […] The IC50 value was determined graphically from a log-logit plot of the data. The Kd values were determined by application of the Cheng-Prussof equation to the IC50 values, the labeled ligand concentration and the Kd of the labeled ligand.

SMILES | Kd
CCCOc1c(C(C)(C)C)cc(/C(C)=C/C=C/C(C)=C/C(=O)O)cc1C(C)(C)C [Compound 8, 2E, 4E, 6E-[7-(3,5-Di-t-butyl-4-n-propoxyphenyl)-3-methyl]-octa-2,4,6-trienoic acid] | 2 nM
C=C(c1ccccc1)c1cc(/C(C)=C/C=C/C(C)=C/C(=O)O)cc(C(C)(C)C)c1 [Compound 17, (2E,4E,6E)-7-[3-t-butyl-5-(1-phenyl-vinyl)-phenyl]-3-methyl-octa-2,4,6-trienoic acid] | 2 nM
CCCCCOc1c(C(C)(C)C)cc(/C(C)=C/C=C/C(C)=C/C(=O)O)cc1C(C)(C)C [Compound 9, 2E, 4E, 6E-[7-(3,5-Di-t-butyl-4-n-pentoxyphenyl)-3-methyl]-octa-2,4,6-trienoic acid] | 9 nM
CCCCOc1c(C(C)(C)C)cc(/C(C)=C/C=C/C(C)=C/C(=O)O)cc1C(C)(C)C [Compound 7, 2E, 4E, 6E-[7-(3,5-Di-t-butyl-4-n-butoxyphenyl)-3-methyl]-octa-2,4,6-trienoic acid] | 3 nM
